Converted amounts (≈) assume the structure as drawn.

The data set can be described thus: Solubility in water of the cyclodextrin derivatives. The data set is classed as physicochemical.
As a reminder, the solubility is how much of the substance goes into solution per volume. For `NC(CCC(=O)NC[C@H]1O[C@@H]2O[C@H]3[C@H](O)[C@@H](O)[C@@H](O[C@H]4[C@H](O)[C@@H](O)[C@@H](O[C@H]5[C@H](O)[C@@H](O)[C@@H](O[C@H]6[C@H](O)[C@@H](O)[C@@H](O[C@H]7[C@H](O)[C@@H](O)[C@@H](O[C@H]8[C@H](O)[C@@H](O)[C@@H](O[C@H]1[C@H](O)[C@H]2O)O[C@@H]8CO)O[C@@H]7CO)O[C@@H]6CO)O[C@@H]5CO)O[C@@H]4CO)O[C@@H]3CO)C(=O)O` (stereo partly drawn) [Example 1(b), mono[N-(4-amino-4-carboxybutyryl)amino]-6-deoxy-β-cyclodextrin], the solubility is above 1000 mg/mL.
For the compound `NC(CC(=O)NC[C@H]1O[C@@H]2O[C@H]3[C@H](O)[C@@H](O)[C@@H](O[C@H]4[C@H](O)[C@@H](O)[C@@H](O[C@H]5[C@H](O)[C@@H](O)[C@@H](O[C@H]6[C@H](O)[C@@H](O)[C@@H](O[C@H]7[C@H](O)[C@@H](O)[C@@H](O[C@H]8[C@H](O)[C@@H](O)[C@@H](O[C@H]1[C@H](O)[C@H]2O)O[C@@H]8CO)O[C@@H]7CO)O[C@@H]6CO)O[C@@H]5CO)O[C@@H]4CO)O[C@@H]3CO)C(=O)O` (stereo partly drawn) [Example 2(b), mono[N-(3-amino 3-carboxypropionyl)amino]-6-deoxy-β-cyclodextrin], the solubility was above 1000 mg/mL.
The compound `NC(Cc1ccc(OCC(=O)NC[C@H]2O[C@@H]3O[C@H]4[C@H](O)[C@@H](O)[C@@H](O[C@H]5[C@H](O)[C@@H](O)[C@@H](O[C@H]6[C@H](O)[C@@H](O)[C@@H](O[C@H]7[C@H](O)[C@@H](O)[C@@H](O[C@H]8[C@H](O)[C@@H](O)[C@@H](O[C@H]9[C@H](O)[C@@H](O)[C@@H](O[C@H]2[C@H](O)[C@H]3O)O[C@@H]9CO)O[C@@H]8CO)O[C@@H]7CO)O[C@@H]6CO)O[C@@H]5CO)O[C@@H]4CO)cc1)C(=O)O` (stereo partly drawn) [Example 3, mono [N-4-(2'-amino 2'-carboxy ethyl) 1-(phenyloxymethylcarbonyl)amino]6-deoxy β-cyclodextrin] displayed a solubility of 900 mg/mL (≈ 664 mM).

Source of the values: patent publication US5631244A, “mono(6-amino-6-deoxy)cyclodextrin derivatives substituted in the 6-position by an α-amino acid residue, process for their preparation and their uses” (L'Oreal, priority 1993, dated 1997).
